Measurements reported in ChEMBL document CHEMBL5233272, “Nimbolide, a Neem Limonoid, Is a Promising Candidate for the Anticancer Drug Arsenal” (J Med Chem, 2021).

Assays:
[1] = Oral bioavailability in Sprague-Dawley rat at 10 mg/kg measured upto 72 hrs; format: ADME, organism-based; details: in vivo
[2] = Oral bioavailability in Sprague-Dawley rat at 30 mg/kg measured upto 72 hrs; format: ADME, organism-based; details: in vivo
[3] = Oral bioavailability in Sprague-Dawley rat at 50 mg/kg measured upto 72 hrs; format: ADME, organism-based; details: in vivo
[4] = Cmax in mouse at 3 mg/kg, po measured after 2 hrs by LC-MS/MS analysis; format: ADME, organism-based; parameters: dose 3 mg/kg, time 2 hrs, route po; details: in vivo
[5] = Drug concentration in athymic Nu/Nu mouse plasma xenografted with human HCT-116 cells transfected with luciferase at 5 mg/kg, ip administered daily for 10 days by HPLC analysis; format: ADME, organism-based; details: time 10 day, read-out: Drug uptake
[6] = Drug concentration in athymic Nu/Nu mouse plasma xenografted with human HCT-116 cells transfected with luciferase at 20 mg/kg, ip administered daily for 10 days by HPLC analysis; format: ADME, organism-based; details: time 10 day, read-out: Drug uptake
[7] = Drug concentration in athymic Nu/Nu mouse tumor xenografted with human HCT-116 cells transfected with luciferase at 5 mg/kg, ip administered daily for 10 days by HPLC analysis; format: ADME, organism-based, Neoplasm; details: time 10 day, read-out: Drug uptake
[8] = Drug concentration in athymic Nu/Nu mouse tumor xenografted with human HCT-116 cells transfected with luciferase at 20 mg/kg, ip administered daily for 10 days by HPLC analysis; format: ADME, organism-based, Neoplasm; details: time 10 day, read-out: Drug uptake
[9] = Acute toxicity in ip dosed Swiss albino mouse assessed as lethal dose; format: organism-based; details: in vivo
[10] = Acute toxicity in iv dosed Swiss albino mouse assessed as lethal dose; format: organism-based; details: in vivo
[11] = Acute toxicity in ip dosed rat assessed as lethal dose; format: organism-based; details: in vivo
[12] = Acute toxicity in ip dosed Syrian golden hamster assessed as lethal dose; format: organism-based, Mesocricetus auratus; details: in vivo

COC(=O)C[C@H]1[C@]2(C)C3=C(C)[C@H](c4ccoc4)C[C@H]3O[C@@H]2[C@@H]2OC(=O)[C@]3(C)C=CC(=O)[C@@]1(C)[C@@H]23 [NIMBOLIDE]
bioavailability [1]: 2.72% | bioavailability [2]: 1.76% | bioavailability [3]: 3.06% | Cmax [4]: 780 nM | concentration at 240 h [5]: 222 ng/mL | concentration at 240 h [6]: 409 ng/mL | concentration at 240 h [7]: 345 ng/g | concentration at 240 h [8]: 868 ng/g | LD50 [9]: 225 mg/kg | LD50 [10]: 24 mg/kg | LD50 [11]: 600 mg/kg | LD50 [12]: 500 mg/kg
